We go through one molecule from US20180065968A1, “NEW SUBSTITUTED TRIAZOLOPYRIMIDINES AS ANTI-MALARIAL AGENTS” (BOARD OF REGENTS OF THE UNIVERSITY OF TEXAS SYSTEM, priority 2015, published 2018).

The nature of series [1]: Aqueous kinetic solubility by nephelometry. The format is physicochemical. Particulars: aqueous buffer, kinetic from dmso stock, pH 6.5 phosphate buffer, 1% DMSO, read-out: Kinetic Solubility pH6.5. How it is done: Aqueous solubility was estimated by nephelometry. Concentrated stock solutions were prepared in DMSO and diluted into either pH 6.5 phosphate buffer or 0.01 M HCl (approximately pH 2.0), with the final DMSO concentration being 1%. Samples were then analyzed by nephelometry to determine the solubility range as described previously (Bevan, et al., 2000, Anal. Chem., 72, 1781-1787).

For series [2], the system named is P. falciparum 3D7. Briefly: P. falciparum 3D7 growth inhibition assay (SYBR green). The format is cell-based. Particulars: Plasmodium falciparum, 72 h incubation, 50% growth inhibition, read-out: Pf 3D7 EC50. The procedure: The ability of triazolopyrimidine derivatives according to the invention to kill P. falciparum parasites and/or to inhibit its proliferation is assayed through their ability to inhibit Plasmodium falciparum growth. The growth inhibition assay is as follows: P. falciparum 3D7 cells were grown in Gibco-Invitrogen RPMI-1640 supplemented with 2% (w/v) red blood cells (RBCs) and either 20% human type A+ plasma (Desjardins et al., 1979, Antimicrob Agents Chemother. 16, 710-718) or with Gibco-Invitrogen 0.5% Albumax I (Coteron et al., 2011, J. Med. Chem., 54, 5540-5561). Serial dilutions of compound stocks were prepared in 100% DMSO at 200× the final concentration, followed by generation of 20× stocks in media. Cell growth was monitored by the SYBR green method as described (Deng, et al., 2014. J. Med. Chem., 57, 5381-539). Parasites (0.19 ml of 0.5% parasitemia, 0.5% HCT) were plated into 96-well microtiter plates containing 10 μL compound or DMSO control (final DMSO concentration of 0.5%). Non-parasitized RBCs (0.5% HCT) were used as a control to determine background fluorescence. After 72 h of incubation parasitized RBCs were quantitated by the SYBR Green method. 2× SYBR Green I solution (20 μL) in 1× PBS was mixed with 20 μL parasites in 96-well plates, incubated for 20 min, and after which 160 μL of 1× PBS was added. Fluorescence was detected using a BD Biosciences Acurri C6 flow cytometer and events recorded within gates that encompassed all asexual growth stages of the P. falciparum intraerythrocytic life cycle. A minimum 50,000 total events were recorded per well. Background events determined from non-parasitized RBC controls were subtracted from final counts.

Series [3] concerns P. falciparum FC27 lab lines. Briefly: Ex vivo schizont maturation assay, lab line. The series is classed as cell-based. Particulars: Plasmodium falciparum; ex vivo schizont maturation, 35-56 hrs; FC27 chloroquine sensitive lab strain; read-out: P. falciparum FC27 lab lines IC50. The procedure:
To assess comparative activity between P. falciparum and P. vivax strains compounds were tested in an ex vivo parasite assay using Plasmodium isolates from patients who visited clinics in Timika (Papua, Indonesia). Parasites in this region are resistant to standard anti-malarials such as chloroquine. P. vivax can not be cultivated in vitro so the ex vivo assay is the only method to evaluate drug sensitivity. Patients with parasitemia between 2000 and 80,000 ul^−1 were eligible for recruitment into the study. Blood was collected by venipuncture, host white blood cells were removed and packed infected red blood cells were used for the ex vivo studies. Drug susceptibility was measured as previously described (Russell et al., 2008, Antimicrobial Agents Chemother., 52, 1040-1045; Marfurt et al., 2011, Antimicrobial Agents Chemother., 55, 961-966; Marfurt et al., 2011, Antimicrobial Agents Chemother., 55, 4461-4464). Briefly two hundred μl of a 2% hematocrit blood mixture, consisting of RPMI 1640 medium plus 10% AB+ human serum (P. falciparum) or McCoy's 5A medium plus 20% AB+ human serum (P. vivax) was added to each well of pre-dosed drug plates containing serial 2-fold dilutions of the anti-malarial compound. A candle jar was used to mature parasites at 37° C. for 35-56 hrs. […] Thick blood films made from each well were stained with 5% Giemsa for 30 min and examined microscopically. The number of schizonts per 200 asexual stage parasites was determined and normalized to the control well. Data were analyzed by nonlinear regression (WinNonLn 4.1) to determine the IC50 using the inhibitory sigmoid Emax model.
Drug plate quality was assured by running schizont maturation assays (two independent experiments) with the chloroquine-resistant strain K1 and the chloroquine-sensitive strain FC27. For microscopy slide reading QC, two randomly selected drugs per isolate were read by a second microscopist. […] If necessary, discrepant results were resolved by a third reading by an expert microscopist.

The target in series [4] is dog DHODH (Canis lupus familiaris, UniProt A0A8I3MWX2). Briefly: Recombinant DHODH inhibition, DCIP dye-based assay. Particulars: dog DHODH, second value of cell; read-out: h/d/m/r DHODH (d). The series is classed as biochemical. The procedure:
(§1) The compounds of the invention were also assessed for inhibitory activity against recombinant DHODH from the indicated species. Recombinant enzymes were produced and purified from E. coli as His6 fusion proteins and purified by Ni^+2-agarose chromatography as described.
(§2) Data were collected on a Synergy H1 hybrid plate reader in 96 well plate format at 28° C., using a final assay volume of 200 μl. Rate data (v) were converted to μmoles/min using the molar extinction coefficient for DCIP. Compounds were prepared in stock solutions of DMSO. An initial 100 mM stock was generated and this was used to prepare a 3 fold dilution series in DMSO. A 1:100 dilution of DMSO stock was made into assay buffer to generate the final concentration in the assay mix.
(§3) Assay Conditions: DHODH (ET=5-10 nM), substrates (0.2 mM L-dihydroorotate and 0.02 mM CoQD), DCIP (0.12 mM) and assay buffer (100 mM HEPES, pH 8.0, 150 mM NaCl, 10% Glycerol, 0.1%Triton) at 20° C. Concentration of compounds of the invention was varied in a 3-fold dilution series (0.01-100 uM). All data were collected in triplicate.
(§4) Fitting was performed in Graph Pad Prism to determine the IC50. Reported error represents the 95% confidence interval of the fit or the standard deviation of the mean.

Series [5] addresses rat DHODH (Rattus norvegicus, UniProt Q63707). Briefly: Recombinant DHODH inhibition, DCIP dye-based assay. The series is classed as biochemical. The note with it: fourth value of cell, read-out: h/d/m/r DHODH (r). How it is done: as §1, §2, §3, §4
For series [6], the target named is mouse DHODH (Mus musculus, UniProt O35435). Briefly: Recombinant DHODH inhibition, DCIP dye-based assay. The series is classed as biochemical. The note with it: third value of cell, read-out: h/d/m/r DHODH (m). How it is done:
as §1, §2, §3, §4

For series [7], the target named is human DHODH (Homo sapiens, UniProt Q02127). Briefly: Recombinant DHODH inhibition, DCIP dye-based assay. Particulars: first value of cell, read-out: h/d/m/r DHODH (h). The series is classed as biochemical. How it is done:
as §1, §2, §3, §4

dog DHODH, sequence (A0A8I3MWX2 1-406): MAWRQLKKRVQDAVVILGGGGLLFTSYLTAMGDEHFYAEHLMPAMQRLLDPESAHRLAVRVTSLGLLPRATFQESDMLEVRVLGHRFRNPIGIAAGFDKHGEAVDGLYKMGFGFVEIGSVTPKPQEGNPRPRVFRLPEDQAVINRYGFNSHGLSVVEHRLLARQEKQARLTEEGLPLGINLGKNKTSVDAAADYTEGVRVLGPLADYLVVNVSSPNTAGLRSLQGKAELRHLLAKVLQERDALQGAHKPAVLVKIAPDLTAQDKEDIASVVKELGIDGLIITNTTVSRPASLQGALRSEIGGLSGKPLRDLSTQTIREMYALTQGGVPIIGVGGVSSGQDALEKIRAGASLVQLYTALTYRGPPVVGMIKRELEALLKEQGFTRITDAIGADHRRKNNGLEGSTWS
human DHODH, sequence (Q02127 whole entry): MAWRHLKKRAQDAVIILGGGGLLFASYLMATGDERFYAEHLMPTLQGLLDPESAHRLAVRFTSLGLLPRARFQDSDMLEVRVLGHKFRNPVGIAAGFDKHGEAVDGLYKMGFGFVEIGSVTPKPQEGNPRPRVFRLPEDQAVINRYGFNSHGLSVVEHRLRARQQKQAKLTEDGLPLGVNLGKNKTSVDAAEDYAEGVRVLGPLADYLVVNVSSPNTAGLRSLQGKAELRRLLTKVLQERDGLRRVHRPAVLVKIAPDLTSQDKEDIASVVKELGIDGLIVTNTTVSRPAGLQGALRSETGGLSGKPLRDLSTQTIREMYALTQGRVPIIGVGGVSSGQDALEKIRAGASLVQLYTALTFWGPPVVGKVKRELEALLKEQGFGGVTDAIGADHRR
rat DHODH, sequence (Q63707 whole entry): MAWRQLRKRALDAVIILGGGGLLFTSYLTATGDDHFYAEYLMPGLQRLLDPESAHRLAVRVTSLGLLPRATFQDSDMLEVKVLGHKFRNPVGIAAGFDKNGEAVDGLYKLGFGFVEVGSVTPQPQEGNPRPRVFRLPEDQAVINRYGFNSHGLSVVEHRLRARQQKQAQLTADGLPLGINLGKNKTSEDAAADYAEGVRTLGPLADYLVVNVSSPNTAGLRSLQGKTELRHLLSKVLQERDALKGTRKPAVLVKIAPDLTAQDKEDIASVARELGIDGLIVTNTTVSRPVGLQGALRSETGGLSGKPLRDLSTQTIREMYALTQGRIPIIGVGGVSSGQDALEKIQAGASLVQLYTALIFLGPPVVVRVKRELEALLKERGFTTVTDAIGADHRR
mouse DHODH, sequence (O35435 whole entry): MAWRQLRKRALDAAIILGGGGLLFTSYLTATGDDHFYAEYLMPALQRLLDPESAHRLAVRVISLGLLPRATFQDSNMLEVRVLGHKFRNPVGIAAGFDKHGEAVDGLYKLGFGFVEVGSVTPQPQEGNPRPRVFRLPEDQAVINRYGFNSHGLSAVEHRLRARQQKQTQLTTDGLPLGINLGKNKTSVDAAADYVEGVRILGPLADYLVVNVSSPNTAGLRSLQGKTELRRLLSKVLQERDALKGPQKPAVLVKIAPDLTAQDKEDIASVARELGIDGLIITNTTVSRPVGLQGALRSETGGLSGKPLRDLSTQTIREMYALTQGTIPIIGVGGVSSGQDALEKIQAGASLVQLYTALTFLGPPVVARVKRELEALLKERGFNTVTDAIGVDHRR

For the molecule `Cc1cc(Nc2ccc(C(F)(F)F)nc2)n2nc(C(C)(F)F)nc2n1` [Compound (1), 2-(1,1-difluoroethyl)-5-methyl-N-(6-(trifluoromethyl)pyridin-3-yl)-[1,2,4]triazolo[1,5-a]pyrimidin-7-amine], in series [1], the kinetic solubility (usually solubility judged after dilution from a stock solution rather than from solid) was over 100 µg/mL. In series [2], the EC50 (as a rule, the concentration giving half of the maximal effect) turned out to be 0.011 µM. For the same molecule, the IC50 is 0.292 µM in series [3]; 65 µM in series [4]; 24 µM in series [5]; 54 µM in series [6]; over 100 µM in series [7].
